Experimental data published in patent US11458153B2, “Drug delivery composition comprising a self-assembled gelator” (The Brigham and Women's Hospital, Inc., priority 2008, dated 2022).
Entries after “also recorded” stand apart in the source; their conditions may differ.

Columns and labels:
[1] = Gelation studies with Apn-based prodrug gelators in water and organic solvents; format: physicochemical; set-up: key to Gelation ability: G = gel; P = precipitate; S = soluble; I = insoluble; conditions: for gelation in water (in words): water / aqueous solutions
From the text: Gelation Studies with Prodrug-Based Gelators. Gelation abilities of Apn based amphiphilic prodrugs have been investigated thoroughly in a wide range of solvents. For detailed gelation results, see Table 1, below). Typically, the required amount of gelator was placed in a glass vial and with an appropriate solvent. […] The resulting solution was slowly cooled to room temperature and gelation was visually observed. […] Despite of prolonged heating Apn-11-CH3 was not soluble in water. […] In addition, Apn-7-COOH is soluble in basic solutions (pH is more than 8).
All gels were opaque in nature and stable for several weeks.
Preparation of Gels. Typically, gelator (0.1-5 mg) and required solvent (0.1-1 mL) were placed into a 2 mL scintillation vial, which was then sealed with a screw cap. The vial was heated with shaking until the solid was completely dissolved.

[2] = test system: mesenchymal stem cells (MSCs); experiment: MSC osteogenic differentiation, alkaline phosphatase staining; format: cell-based, human; conditions: 250 μM, 23 days
Description: (§1) Unlike typical fibroblast cell lines used for toxicity screening, cultured mesenchymal stem cells are highly sensitive to the presence of soluble factors and can often loose their capacity for multi-lineage differentiation or differentiate into non-desired lineages depending on the culture conditions. To examine the impact of the acetaminophen amphiphilic prodrugs on multi-lineage differentiation of MSCs, cells were treated with adipogenic and osteogenic induction media in presence of amphiphiles followed by respective colorimetric histological staining.
Osteogenic Differentiation. MSCs were seeded in the wells of 24 well plates, and were culture in MSC expansion media until they reach 90% confluence (note: in control samples there was no amphiphile present, whereas in experimental samples 250 μM of Apn-based amphiphile was present). Osteogenic differentiation was induced by culturing the cells for 23 days in osteogenic induction media (from Lonza—MSCs Osteogenic Single Quote kit) containing dexamethasone, β-glycerophosphate, L-ascorbic acid-2-phosphate, and α-MEM. The media in both groups was changed every 3 days (note: each time while changing the media, 250 μM of Apn-based amphiphiles were added to maintain constant concentration). Osteogenesis was evaluated by cell membrane associated alkaline phosphatase activity. Alkaline phosphatase activity was examined after 23 days by carefully aspirating the media and washing the cells with PBS. The cells were fixed with 3.7% formaldehyde solution for 15 min at room temperature followed by rinsing with distilled water. 0.06% Red Violet LB salt solution in Tris HCl was added with distilled water containing DMF and Naphthol AS MX-PO4. The plates were incubated for 45 minutes at room temperature and then the wells were rinsed 3 times with distilled water and imaged under with inverted phase contrast microscope.

[3] = test system: mesenchymal stem cells (MSCs); experiment: MSC adipogenic differentiation, Oil Red O staining; format: cell-based, human; conditions: 250 μM, 23 days of induction
Description: as §1
Adipogenic Differentiation. MSCs were seeded in the wells of 24 well plates, and were culture in MSC expansion media until they reach 90% confluence (note: in control samples there was no amphiphile present, whereas in experimental samples 250 μM of Apn-based amphiphile was present). Adipogenic differentiation was induced by culturing the cells for 23 days in adipogenic induction media (from Lonza—MSCs Adipogenic Single Quote kit containing h-Insulin (recombinant), L-Glutamine, Dexamethasone, Indomethacin, IBMX (3-isobuty-1-methyl-xanthine), Pen/Strep) and adipogenic maintenance media (from Lonza—MSCs Adipogenic Single Quote kit containing h-Insulin (recombinant), L-Glutamine, Pen/Strep). […] Adipogenesis was evaluated by Oil Red O staining. Following aspiration of the media, cells were washed once with PBS, and fixed in PBS with 3.7% formaldehyde for 30 min at room temperature. Following fixation cells were rinsed with distilled water for a few minutes, and incubated with isopropanol containing an Oil Red O working solution (prepared by diluting 30 mL of 0.5% isopropanol/Oil Red O solution with 20 mL of distilled water). After 45 minutes culture well were rinsed twice with distilled water and 1 mL of hematoxylin was added to each well for 1 minute followed by aspiration and washing with distilled water. The wells were viewed using an inverted phase contrast microscope.

[4] = test system: mesenchymal stem cells (MSCs); experiment: MSC viability, trypan blue exclusion; format: cell-based, human; conditions: 250 μM, 48 hours incubation
Description: Cytocompatibility. The cytocompatibility of prodrugs generated from small modification of known drugs was investigated. […] To test the cyto compatibility of prodrug-based amphiphiles and bolaamphiphiles, and their effect on cell characteristics such as viability, proliferation, adhesion and cell phenotype, a series of experiments was performed with mesenchymal stem cells (MSCs). To gain more insight into the effect of modification, unmodified drug Apn was used as a control. The viability of control cells and cells treated with Apn, Apn-7-COOH and Apn-8-Apn was examined with trypan blue assay. Use of Mesenchymal stem cells is appropriate given that these systems may be used for localized release likely into connective tissues.
Mesenchymal Stem Cell Culture. Primary human mesenchymal stem cells were maintained in expansion media that consisted of 15% Fetal Bovine Serum (selected for its ability to expand MSCs), 1% (v/v) L-Glutamine, 1% (v/v) Penn-Strep, and α-MEM. All experiments were performed using MSCs at passage number 4-6.
Viability, Adhesion and Proliferation Characteristics. The viability of the cells was examined using trypan blue exclusion. […] The media was then aspirated and the cells were detached with 200 μL of cell dissociated solution (similar quantities of floating cells were observed between the groups, typically 5-10 per well). 300 μL of media was added and the total 500 μL of the cell dispersion was collected in an eppendorf tubes. From this 10 μL of cell dispersion was diluted to 1:1 with 4% trypan blue solution and cells were counted in a hemocytometer to determine the number viable (non-blue) and nonviable (blue) cells. A control for this experiment included cells treated with only phosphate buffer saline (PBS) without an amphiphile. Cell adhesion was quantified by measuring the number of adherent cells on tissue culture surfaces in 96 well plates after incubating with amphiphiles for 12 hours. For proliferation studies, 5000 cells were added to each well of a 96 well plate in 200 μL of MSC cell expansion media, and appropriate amphiphiles were then added and incubated at 37° C. and 5% CO2. Proliferation was quantified by manually tabulating the number of cells within the flask at multiple time points (1, 2, 3, 4, 6 and 8 days) with light microscopy at 10×.

[5] = molecular target: T1, lipase (Lipolase 100L, Type EX) (Thermomyces lanuginosus, UniProt O59952); experiment: Enzyme-triggered hydrogel degradation and drug release; format: in vitro ADME; conditions: curcumin-encapsulated hydrogel, lipase, 37° C., several days
T1 construct: purchased Novozymes through Brenntag North America Lipolase 100L, Type EX
T1 sequence (O59952 23-291): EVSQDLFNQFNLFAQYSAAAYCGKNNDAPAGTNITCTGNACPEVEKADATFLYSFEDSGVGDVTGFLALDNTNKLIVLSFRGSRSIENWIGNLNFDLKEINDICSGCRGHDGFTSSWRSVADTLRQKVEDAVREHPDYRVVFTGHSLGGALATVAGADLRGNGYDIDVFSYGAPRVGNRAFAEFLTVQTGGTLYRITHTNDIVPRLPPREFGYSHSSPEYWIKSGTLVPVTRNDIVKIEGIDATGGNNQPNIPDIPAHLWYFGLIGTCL
Description: Encapsulation and release of curcumin was previously studied by the Ultra-Violet absorbance spectroscopy (λmax at 424 nm). Absorbance spectrum of modified Apn-7-COOH was similar to that of Apn (FIG. 6B). In this instance, enzyme-triggered single and multiple drug delivery has been carried out using two sets of hydrogel samples, i.e., hydrogels of Apn-7-COOH and Apn-8-Apn with and without curcumin. In the first set, lipase (Lipolase 100L, Type EX, lipase units 100 KLU/g) was added to the preformed hydrogel of Apn-7-COOH (2 wt %) and kept it at 37° C. which is lower than gel melting temperature. It was anticipated that lipase (esterase) would hydrolyze the ester bond of prodrug-based gelator (Apn-7-COOH) to release acetaminophen and dicarboxylic acid as the hydrogel degrades. As expected, after 48 hours the gel completely degraded and became a clear solution.
To test this further, and examine multiple (two) drugs delivery (FIGS. 6A-6E), curcumin was encapsulated in the hydrogel of Apn-7-COOH (2 wt %) and to that lipase was added and kept it at 37° C. Absorbance spectra were recorded on aliquots which were collected (after the addition of enzyme to the hydrogel) at regular intervals (FIG. 6C). […] The concentration of the enzyme used in these in vitro experiments is higher than physiological concentration of esterases (for example, physiological concentration of cholesterol esterase is 7 U/ml).
Increasing either concentration of enzyme or incubation temperature to 45° C. doubles the drug release rate, which was correlating with previous findings.
To analyze the gel degradation mechanism, another prodrug Apn-5-ether-COOH was synthesized (FIG. 2), where hydrocarbon chain (which is bearing terminal carboxylic acid) was connected to the acetaminophen through an ether bond (C—O—C) to prevent the esterolytic cleavage by lipase.

[6] = cited from earlier work
[7] = Gelation ability of polyol amphiphiles in water and organic solvents; format: physicochemical; set-up: key: G = stable gel at room temperature; P = precipitate; Sol = soluble
From the text: Examples of suitable solvents include water, salt water (such as a NaCl solution), different […] such as TRISZMA buffers, and alkaline and acidic solutions. In addition to water-based solutions, the compounds can gel various aromatic and non-aromatic organic solvents, such as benzene, toluene, hexane, and acetonitrile. All the gels obtained in Table 7 were thermally reversible. Above their gelation temperature, the gels dissolved in solvent, but could be returned to their original gel state upon cooling.

| Compound | solubility in water (in words) [1] | gelation in water (in words) [1] | Gelation ability ([1]; solvent chloroform) | Gelation ability ([1]; solvent ethanol) | Gelation ability ([1]; solvent ethyl acetate) | Gelation ability ([1]; solvent isopropanol) | Gelation ability ([1]; solvent methanol) | Gelation ability ([1]; solvent t-butanol) | Gelation ability ([1]; solvent water) | minimum gelation concentration ([1]; solvent water) [wt/v %] | further results |
| --- | --- | --- | --- | --- | --- | --- | --- | --- | --- | --- | --- |
| CC(=O)Nc1ccc(O)cc1 [Apn, N-(4-hydroxyphenyl)acetamide, reference compound] | water soluble |  |  |  |  |  |  |  |  |  | osteogenic differentiation, alkaline phosphatase (ALP) staining [2]: robust capacity; also recorded: positive staining; adipogenic differentiation, Oil Red O (ORO) staining [3]: robust capacity; also recorded: positive staining; viable cells [4]: 91% |
| CC(=O)Nc1ccc(OCCCCCC(=O)O)cc1 [Apn-5-ether-COOH] |  | gelation behavior akin to Apn-7-COOH |  |  |  |  |  |  |  |  | state of hydrogel after incubation with lipase [5]: still intact; curcumin release into the solution ([5]; absorption spectroscopy): prevented curcumin release |
| CC(=O)Nc1ccc(OC(=O)CCCCCCC(=O)Oc2ccc(NC(C)=O)cc2)cc1 [Apn-8-Apn] |  | formed stable hydrogels | S | S | I | S | S | S | G | 1.1 | osteogenic differentiation, alkaline phosphatase (ALP) staining [2]: robust capacity; also recorded: equally stained for ALP; adipogenic differentiation, Oil Red O (ORO) staining [3]: robust capacity; also recorded: equally stained for ORO; viable cells [4]: 82% |
| CCCCCCCCCCCC(=O)Oc1ccc(NC(C)=O)cc1 [Apn-11-CH3] | not soluble | did not gelate | S | G | P | G | S | G | I |  | minimum gelation concentration ([1]; solvent ethanol): 1.5 wt/v %; minimum gelation concentration ([1]; solvent isopropanol): 0.8 wt/v %; minimum gelation concentration ([1]; solvent t-butanol): 0.6 wt/v % |
| CC(=O)Nc1ccc(OC(=O)CCCCCCCCCCCCC(=O)O)cc1 [Apn-13-COOH] | sparingly soluble |  | S | S | I | S | S | S | G | 0.6 |  |
| CC(=O)Nc1ccc(OC(=O)CCCCCCCCCCCCC(=O)Oc2ccc(NC(C)=O)cc2)cc1 [Apn-14-Apn] | insoluble |  | S | S | I | S | S | S | G | 0.9 |  |
| COc1cc(C=CC(=O)CC(=O)C=Cc2ccc(O)c(OC)c2)ccc1O [curcumin, 1,7-bis(4-hydroxy-3methoxyphenyl)-1,6-heptadiene-3,5-dione] |  |  |  |  |  |  |  |  |  |  | solubility of curcumin in water [6]: 30 nM |
| CCCCCCCCCCCCCCCC(=O)NC(CO)(CO)CO [polyol-16] |  |  |  |  |  |  |  |  |  |  | Gelation ability ([7]; solvent 1,4-dioxane): Sol; Gelation ability ([7]; solvent CCl4): G; Gelation ability ([7]; solvent CH3CN): G; Gelation ability ([7]; solvent CHCl3): Sol; Gelation ability ([7]; solvent DMSO): Sol; Gelation ability ([7]; solvent NaCl (40 mM)): G; Gelation ability ([7]; solvent TRIS (50 mM)): G; Gelation ability ([7]; solvent acetone): Sol; Gelation ability ([7]; solvent acidic (pH < 3)): G; Gelation ability ([7]; solvent basic (pH > 12)): G; Gelation ability ([7]; solvent benzene): G; Gelation ability ([7]; solvent cyclohexane): G; Gelation ability ([7]; solvent toluene): G; Gelation ability ([7]; solvent water): G |
